Source: EP0337731B1, “Peptide antibiotics” (ELI LILLY AND COMPANY, priority 1988, dated 1989)

Tested on: A54145.1, A54145.2, and A54145.3
Experiment: Resistance to antibiotics, sensitivity discs on seeded ISP No. 2 agar plates
Type: cell-based, Streptomyces fradiae
Protocol: A54145.1, A54145.2, and A54145.3 had identical antibiotic-resistance patterns. The strains were resistant to lincomycin at 2 µg and penicillin G at 10 units. The strains were sensitive to bacitracin at 10 units, cephalothin at 30 µg, gentamicin at 10 µg, neomycin at 30 µg, oleandomycin at 15 µg, rifampin at 5 µg, streptomycin at 10 µg, tetracycline at 30 µg, tobramycin at 10 µg and vancomycin at 30 µg.

With CO[C@H]1/C=C/O[C@@]2(C)Oc3c(C)c(O)c4c(O)c(c(/C=N/N5CCN(C)CC5)c(O)c4c3C2=O)NC(=O)/C(C)=C\C=C\[C@H](C)[C@H](O)[C@@H](C)[C@@H](O)[C@@H](C)[C@H](OC(C)=O)[C@@H]1C [rifampin] as the compound, how does the antibiotic-resistance pattern (disc at 5 µg) read?
The antibiotic-resistance pattern was “sensitive”.

bacitracin was tested. Which antibiotic-resistance pattern (disc at 10 units) did it give?
The antibiotic-resistance pattern was “sensitive”.

Which antibiotic-resistance pattern (disc at 10 µg) does the source give for NC[C@H]1O[C@H](O[C@H]2[C@H](O)[C@@H](O[C@H]3O[C@H](CO)[C@@H](O)[C@H](N)[C@H]3O)[C@H](N)C[C@@H]2N)[C@H](N)C[C@@H]1O [tobramycin] here?
Its antibiotic-resistance pattern is “sensitive”.

How did the antibiotic-resistance pattern (disc at 10 µg) turn out when gentamicin was run?
The antibiotic-resistance pattern was “sensitive”.

For CO[C@H]1C[C@H](O[C@H]2[C@H](C)[C@@H](O[C@@H]3O[C@H](C)C[C@H](N(C)C)[C@H]3O)[C@@H](C)C[C@@]3(CO3)C(=O)[C@H](C)[C@@H](O)[C@@H](C)[C@@H](C)OC(=O)[C@@H]2C)O[C@@H](C)[C@@H]1O [oleandomycin], which antibiotic-resistance pattern (disc at 15 µg) is on record?
Its antibiotic-resistance pattern is “sensitive”.

For CN[C@H](CC(C)C)C(=O)N[C@H]1C(=O)N[C@@H](CC(N)=O)C(=O)N[C@H]2C(=O)N[C@H]3C(=O)N[C@H](C(=O)N[C@H](C(=O)O)c4cc(O)cc(O)c4-c4cc3ccc4O)[C@H](O)c3ccc(c(Cl)c3)Oc3cc2cc(c3O[C@@H]2O[C@H](CO)[C@@H](O)[C@H](O)[C@H]2O[C@H]2C[C@](C)(N)[C@H](O)[C@H](C)O2)Oc2ccc(cc2Cl)[C@H]1O [vancomycin], which antibiotic-resistance pattern (disc at 30 µg) is on record?
Its antibiotic-resistance pattern is “sensitive”.

[H]/N=C(/N)N[C@H]1[C@H](O)[C@@H](O)[C@H](O[C@@H]2O[C@@H](C)[C@](O)(C=O)[C@H]2O[C@@H]2O[C@@H](CO)[C@H](O)[C@@H](O)[C@@H]2NC)[C@@H](N/C(N)=N\[H])[C@@H]1O [streptomycin] was tested. Which antibiotic-resistance pattern (disc at 10 µg) did it give?
The antibiotic-resistance pattern was “sensitive”.

How did the antibiotic-resistance pattern (disc at 10 units) turn out when CC1(C)S[C@@H]2[C@H](NC(=O)Cc3ccccc3)C(=O)N2[C@H]1C(=O)O [penicillin G] was run?
The antibiotic-resistance pattern was “resistant”.

How did the antibiotic-resistance pattern (disc at 30 µg) turn out when CC(=O)OCC1=C(C(=O)O)N2C(=O)[C@@H](NC(=O)Cc3cccs3)[C@H]2SC1 [cephalothin] was run?
The antibiotic-resistance pattern was “sensitive”.

Which antibiotic-resistance pattern (disc at 30 µg) does the source give for neomycin here?
Its antibiotic-resistance pattern is “sensitive”.

Which antibiotic-resistance pattern (disc at 2 µg) does the source give for CCC[C@@H]1C[C@@H](C(=O)N[C@@H]([C@H]2O[C@H](SC)[C@H](O)[C@@H](O)[C@H]2O)[C@@H](C)O)N(C)C1 [lincomycin] here?
Its antibiotic-resistance pattern is “resistant”.
